Test results taken from patent publication US20160008298A1, “XANTHOHUMOL-BASED COMPOUNDS AND COMPOSITIONS THEREOF, AND METHODS OF MAKING AND USING THE SAME” (Oregon State University, priority 2014, published 2016).

Assays:
[1] = tested on: mitochondrial transmembrane potential in C2C12 cells; assay: JC-1 assay of mitochondrial transmembrane potential; type: cell-based, mouse; details: 2.5 μM
Method: Cells were plated at a density of 80,000 cells per well in black 96-well plates and incubated for 24 hours at 37° C. (5% CO2). They were then treated with fresh solutions of various concentrations of XN, DXN or TXN in growth medium. The final concentrations of XN, DXN, TXN were 1, 2, 5, 8, 25, 50 μM, all in quadruplicate wells, in the 96-well plates. After one hour of exposure to the compounds at 37° C. (5% CO2), the cells were treated with 10 μL of a JC-1 staining solution (freshly prepared by diluting 11 fold 100 μL of the JC-1 agent furnished from the assay kit). After 15 to 30 minutes of incubation (37° C., 5% CO2), the cells were washed three times with the Cell-Based Assay Buffer (prepared by dissolving three buffer tablets of the kit in 300 mL of MilliQ water). The plates were then analyzed by a fluorescent plate reader (SpectraMax Gemini XS) at 560-595 nm and 485-535 nm.
JC-1 can selectively enter into mitochondria and reversibly change color from green to red as the membrane potential increases. In healthy cells with high mitochondrial transmembrane potential, JC-1 spontaneously forms complexes known as J-aggregates with intense red fluorescence with excitation and emission at 560 nm and 595 nm, respectively. […] The ratio of fluorescence intensity of J-aggregates to fluorescence intensity of J-monomers can be used as an indicator of cell heath or mitochondrial state. […] A decrease in the values of the ratios compared to the control is indicative of an alteration in the potential across the mitochondrial membrane.

[2] = tested on: plasma membrane; details: cited from earlier work
[3] = tested on: C2C12 skeletal muscle cells; assay: Seahorse OCR and ECAR measurements after oligomycin; type: cell-based, mouse; details: oligomycin 1 μM; for ECAR plateau after injection of oligomycin: % pre oligomycin values
Method: OCR and ECAR measurements were performed with a Seahorse XF 24 Analyzer (Seahorse Bioscience). Cells were plated 24 hours prior to measurements at a density of 40,000 cells per well within growth medium in a 24-well plate. The cells were then allowed to adhere for 24 hours (37° C., 5% CO2). Prior to the assay, the cells were washed with freshly prepared running media consisting of Seahorse XF Assay medium (Seahorse Bioscience, North America, USA), 10 mM glucose and 1 mM sodium pyruvate. The pH of the medium was adjusted to 7.4 with 1 M NaOH. The cells were then equilibrated for one hour at 37° C. without CO2. The compounds were injected during the assay; OCR and ECAR were measured at 9 minutes measurement intervals. The solutions of oligomycin, FCCP, XN, DXN and TXN were freshly prepared in running medium. The final concentrations in the wells were: 1 μM for oligomycin, 5 μM for XN, DXN and TXN and 2, 5, 8, 25 μM for the dose response experiments with DXN. Ethanol was added to the control wells not to exceed a final concentration of 0.1%. All the compounds were tested in quadruplicate on the 24-well plate. XN is highly non-polar and FBS can be used to dissolve XN. Thus, XN, DXN and TXN were first dissolved in ethanol and the resulting solutions were diluted 100-fold in running medium containing 1% of FBS. After a further 10-fold dilution into the media in wells, only 0.1% of FBS was present during OCR measurements. […] The concentration of oligomycin and the cell density used were selected based on preliminary experiments.
Seahorse data were analyzed in SAS 9.2 (SAS Institute Inc., Cary, N.C.). To show a consistent baseline, OCR values (in pmol/min/mg protein) and ECAR values (in mpH/min/mg protein) for each value were divided prior to statistical analysis by the average of the four pre oligomycin treatment values (0, 8, 17, and 25 minutes) for the corresponding well and are shown as % pre oligomycin values. The original scale for OCR and for ECAR values was utilized for the OCR/ECAR ratio (in pMol/mpH). To account for repeated measures within wells over time, a repeated-measures-in-time design using ANOVA procedures in PROC MIXED was used. Fixed effects in the model were treatment (control, 2 μM DXN, 5 μM XN, 5 μM DXN, and 5 μM TXN for the compound study and control, 2, 5, 8, and 25 μM DXN for the DXN dosage study), time (0, 8, 17, 25, 34, 43, 52, 60, 69, 78, 86, and 95 minutes), and their interaction. The random effect was the experiment (5 experiments for the compound study and 3 experiments for the DXN dosage study). To account for repeated measures within wells over time, a first order homogeneous variance-covariance matrix [AR(1)] was fitted for each well. Using the ESTIMATE statement, a priori contrasts were constructed by comparing the changes in compound treated cells from the last two time points prior to compound treatment (average 52 and 60 minutes) to the changes in control cells during the same time period. This was done for each compound and dosage for 69, 78, 86, and 95 minutes separately and for all four time points combined. […] A P-value of 0.05 was considered statistically significant and is shown as star in the graphs (FIG. 5).

[4] = tested on: mice; details: mouse; cited from earlier work

## N#CC(C#N)=NNc1ccc(OC(F)(F)F)cc1 [FCCP, carbonyl cyanide-4-(trifluoromethoxy)phenylhydrazone, reference compound]
[1]
  ratio value of aggregates to monomers (JC-1, percent of control): 33.0±5.6%
[2]
  concentration from which the plasma membrane is depolarized: above 2.5 μM

## CC[C@H]1/C=C/C=C/C[C@@H](C)[C@H](O)[C@@](C)(O)C(=O)[C@@H](C)[C@H](O)[C@@H](C)C(=O)[C@@H](C)[C@H](O)[C@@H](C)/C=C/C(=O)O[C@@H]2[C@H](C)[C@H](CC1)O[C@]1(CC[C@H](C)[C@H](C[C@@H](C)O)O1)[C@H]2C [oligomycin, reference compound]
[3]; DXN dosage experiment
  residual OCR after oligomycin: 51.4±6.3%
[3]; DXN dosage study
  ECAR plateau after injection of oligomycin: 151.1±3.4%
[3]; compound study
  ECAR plateau after injection of oligomycin: 160.1±5.1%

## O=[N+]([O-])c1ccc(O)c([N+](=O)[O-])c1 [dinitrophenol, reference compound]
[4]
  LD50: 45 mg/kg
